Substitutions are numbered along the chain they refer to. Positions of bridges follow the written chain, without caps; N, C: chain ends. Non-standard residues stand in square brackets, D forms with d. Residues, ends and D or L forms follow the SMILES beside them. *: point of attachment. 5FAM = O=C1OC2(c3ccc(O)cc3Oc3cc(O)ccc32)c2ccc(C(=O)*)cc21; 6FAM = O=C1OC2(c3ccc(O)cc3Oc3cc(O)ccc32)c2cc(C(=O)*)ccc21; S5 = C=CCCC[C@](C)(N)C(=O)O; AEEEA = NCCOCCOCCOCC(=O)O
Tests used:
HeLa cells = test: Confocal microscopy of fixed HeLa cells (peptide localisation, endogenous TACC3 and CHC on mitotic spindle); format: cell-based
Description: HeLa cells grown on glass coverslips in complete growth medium and treated with 2.5, 5 and 10 μM FAM-peptides for 5 h. Cells were washed with PBS and fixed with PTEMF (20 mM PIPES, pH 6.8, 10 mM EGTA, 1 mM MgCl2, 0.2% Triton X-100 and 4% paraformaldehyde) for 10 min and permeabilized at room temperature in 0.5% Triton-X100 in PBS for 10 min. Cells were blocked in 3% BSA in PBS for 1 h and incubated overnight with primary antibodies diluted in 3% BSA/PBS buffer followed by 1 h incubation with secondary antibodies. Primary antibodies were as follows: mouse anti-CHC (X22; GTX22731; 1:250), rabbit anti-TACC3 (ab134154, Abcam; 1:500). Secondary antibodies were anti-mouse IgG Atto 594 (1:250, 76085, Merck) and anti-rabbit IgG Atto 647N antibody (1:250, 40839, Merck). Coverslips were mounted with ProLong Gold antifade reagent with DAPI (Invitrogen). Peptides were imaged using their 6-FAM fluorescent tag with a 488 nm argon laser. Imaging was performed on a Zeiss LSM880 upright confocal microscope using a 40x/1.4 NA oil objective. Z-stacks comprising of 9–13 × 1 μm sections were acquired. Images were captured using identical settings. The region of interest (~0.6 μm^2) was quantified in three different locations over the spindle, cytoplasm and in the non-cell region of background. Images were analysed using Fiji (v.2.9.0).

K507A-CHC^ankle = biological target: T1, K507A-CHC^ankle (Homo sapiens, UniProt Q00610, K507A); test: Fluorescence polarisation direct binding assay, K507A-CHC ankle; conditions: direct binding FP, FAM labelled peptides; CHC with K507A substitution; mean of three experiments ± SD; read-out: KD, stapled and control peptides, CHC K507A
T1 construct: we used the minimal ankle region of CHC (CHC^ankle, aa 358–574); GST (TEV-cleavable); made in house
T1 sequence (Q00610 358-574 K507A): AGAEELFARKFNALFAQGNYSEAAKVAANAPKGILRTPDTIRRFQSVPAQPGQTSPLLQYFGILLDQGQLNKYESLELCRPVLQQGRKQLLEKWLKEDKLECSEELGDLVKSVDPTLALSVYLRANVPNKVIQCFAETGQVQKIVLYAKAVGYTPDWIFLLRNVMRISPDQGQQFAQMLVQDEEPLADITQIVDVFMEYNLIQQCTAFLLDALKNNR
Excerpt: CHC constructs for binding studies were produced during previous work by cloning the respective CHC coding sequence of Q00610 (CLH1_HUMAN) aa 1–574 and 358–574, respectively) into a modified pGEX vector containing a TEV-cleavable GST tag[26]. Point mutations K506A and K507A were introduced by site-directed mutagenesis. GB1-TACC3 is the small protein GB1[47] fused to a short, disordered peptide sequence from human TACC3 (Q9Y6A5, aa 545–573). This hybrid sequence was cloned into a pETM6T1 vector which contains a TEV protease-cleavable N-terminal His-NusA tag.
(§1) Binding affinity of CHC and TACC3 peptides was calculated based on fluorescence polarization assays performed as reported previously, using linear and stapled FAM-TACC3 peptides corresponding to aa 549–570 of human TACC3 protein. Linear peptides were purchased from PPR (Fareham, UK); Alta Bioscience (Redditch, UK); Biomatik Corporation (Ontario, Canada). Stock solutions of peptides were 10 mM in DMSO. Binding assays were performed in triplicate in the binding buffer 20 mM HEPES pH 7.5, 150 mM NaCl, 5 mM DTT, 0.05% Tween-20. Data analysis was performed using a one-site specific binding model in Prism (GraphPad software, v10.1.0).

[1] = biological target: T2, CHC^ankle (clathrin heavy chain aa 358–574) (Homo sapiens, UniProt Q00610); test: Fluorescence polarisation direct binding assay, CHC ankle WT; conditions: direct binding FP, FAM labelled peptides; CHC WT (385–574); mean of three experiments ± SD; read-out: KD, stapled and control peptides, CHC WT
T2 construct: we used the minimal ankle region of CHC (CHC^ankle, aa 358–574); GST (TEV-cleavable); made in house
T2 sequence (Q00610 358-574): T1 sequence (Q00610 358-574 K507A) with A150K
Description: as §1

| Kd (K507A-CHC^ankle) [µM] | Kd [1] [µM] | Structure (SMILES) | other results |
| --- | --- | --- | --- |
|  |  | CC(C)C[C@H](NC(=O)[C@H](C)NC(=O)[C@H](CO)NC(=O)[C@H](CCC(=O)O)NC(=O)[C@H](CCCCN)NC(=O)c1ccc2c(c1)C(=O)OC21c2ccc(O)cc2Oc2cc(O)ccc21)C(=O)N[C@@H](CCCNC(=N)N)C(=O)N[C@@H](CCCCN)C(=O)N[C@@H](CCC(N)=O)C(=O)N[C@@H](CCC(=O)O)C(=O)N[C@@H](CC(C)C)C(=O)N[C@@H](CC(C)C)C(=O)N[C@@H](CC(C)C)C(=O)N[C@@H](CCC(=O)O)C(=O)N[C@@H](Cc1ccccc1)C(=O)N[C@@H](CC(=O)O)C(=O)N1CCC[C@H]1C(=O)N[C@@H](CC(C)C)C(=O)N[C@@H](Cc1ccccc1)C(=O)N[C@@H](CCCNC(=N)N)C(N)=O [Opt P6 TACC3 S558E] (5FAM-KESALRKQELLLEFDPLFR-NH2; N-terminus and C-terminus assumed) | cell permeability seen by confocal imaging (HeLa cells; fixed HeLa cells, 5 h after adding 5 μM FAM-peptide to the culture medium): not sufficiently cell permeable |
|  |  | CC(C)C[C@H](NC(=O)[C@H](C)NC(=O)[C@H](CO)NC(=O)[C@H](CCC(=O)O)NC(=O)[C@H](CCCCN)NC(=O)COCCOCCOCCNC(=O)c1ccc2c(c1)C1(OC2=O)c2ccc(O)cc2Oc2cc(O)ccc21)C(=O)N[C@@H](CCCNC(=N)N)C(=O)N[C@@H](CCCCN)C(=O)N[C@@]1(C)CCCC=CCCC[C@@](C)(C(=O)N[C@@H](CCC(=O)O)C(=O)N[C@@H](Cc2ccccc2)C(=O)N[C@@H](CC(=O)O)C(=O)N2CCC[C@H]2C(=O)N[C@@H](CC(C)C)C(=O)N[C@@H](Cc2ccccc2)C(=O)N[C@@H](CCCNC(=N)N)C(=O)N[C@@H](CC(=O)O)C(=O)N[C@@H](CO)C(N)=O)NC(=O)[C@H](CC(C)C)NC(=O)[C@H](CC(C)C)NC(=O)[C@H](CCC(=O)O)NC1=O [Opt PEG3 SP TACC3] ({6FAM-AEEEA}-KESALRK[S5]ELL[S5]EFDPLFRDS-NH2; staple 8-12) | colocalisation with endogenous TACC3 on the mitotic spindle (HeLa cells; fixed mitotic HeLa cells, FAM-labelled peptides, confocal microscopy): colocalised with endogenous TACC3 on the mitotic spindle; reduction of endogenous TACC3 levels in the mitotic spindle (HeLa cells; metaphase HeLa cells, peptide 2.5, 5 and 10 μM, 5 h, compared to the negative control SP TACC3 peptide): up to 40% |
| 23 ± 5 | 145 ± 3 | CC(C)C[C@H](NC(=O)[C@H](Cc1ccc(O)cc1)NC(=O)[C@H](CC(C)C)NC(=O)[C@]1(C)CCCC=CCCC[C@](C)(NC(=O)[C@H](C)NC(=O)[C@H](CO)NC(=O)[C@H](CCC(=O)O)NC(=O)[C@H](CCCCN)NC(=O)[C@H](Cc2ccccc2)NC(=O)c2ccc3c(c2)C2(OC3=O)c3ccc(O)cc3Oc3cc(O)ccc32)C(=O)N[C@@H](CCCNC(=N)N)C(=O)N[C@@H](CCCCN)C(=O)N[C@@H](CCC(N)=O)C(=O)N1)C(=O)N[C@@H](CCCCN)C(=O)N[C@@H](Cc1ccccc1)C(=O)N[C@@H](CC(=O)O)C(=O)N1CCC[C@H]1C(=O)N[C@@H](CC(C)C)C(=O)N[C@@H](CC(C)C)C(=O)N[C@@H](CCCNC(=N)N)C(=O)N[C@@H](CC(=O)O)C(=O)N[C@@H](CO)C(N)=O [SP2] (6FAM-FKESA[S5]RKQ[S5]LYLKFDPLLRDS-NH2; staple 6-10) |  |
| 23 ± 6 | 92 ± 3 | CC(C)C[C@@H]1NC(=O)[C@H](C)NC(=O)[C@H](CO)NC(=O)[C@@](C)(NC(=O)[C@H](CCCCN)NC(=O)[C@H](Cc2ccccc2)NC(=O)c2ccc3c(c2)C2(OC3=O)c3ccc(O)cc3Oc3cc(O)ccc32)CCCC=CCCC[C@@](C)(C(=O)N[C@@H](CCCCN)C(=O)N[C@@H](CCC(N)=O)C(=O)N[C@@H](CC(=O)O)C(=O)N[C@@H](CC(C)C)C(=O)N[C@@H](Cc2ccc(O)cc2)C(=O)N[C@@H](CC(C)C)C(=O)N[C@@H](CCCCN)C(=O)N[C@@H](Cc2ccccc2)C(=O)N[C@@H](CC(=O)O)C(=O)N2CCC[C@H]2C(=O)N[C@@H](CC(C)C)C(=O)N[C@@H](CC(C)C)C(=O)N[C@@H](CCCNC(=N)N)C(=O)N[C@@H](CC(=O)O)C(=O)N[C@@H](CO)C(N)=O)NC1=O [SP3D] (6FAM-FK[S5]SAL[S5]KQDLYLKFDPLLRDS-NH2; staple 3-7) |  |
| 22 ± 6 | 78 ± 3 | CC(C)C[C@@H]1NC(=O)[C@H](C)NC(=O)[C@H](CO)NC(=O)[C@@](C)(NC(=O)[C@H](CCCCN)NC(=O)[C@H](Cc2ccccc2)NC(=O)c2ccc3c(c2)C(=O)OC32c3ccc(O)cc3Oc3cc(O)ccc32)CCCC=CCCC[C@@](C)(C(=O)N[C@@H](CCCCN)C(=O)N[C@@H](CCC(N)=O)C(=O)N[C@@H](CCC(=O)O)C(=O)N[C@@H](CC(C)C)C(=O)N[C@@H](Cc2ccc(O)cc2)C(=O)N[C@@H](CC(C)C)C(=O)N[C@@H](CCCCN)C(=O)N[C@@H](Cc2ccccc2)C(=O)N[C@@H](CC(=O)O)C(=O)N2CCC[C@H]2C(=O)N[C@@H](CC(C)C)C(=O)N[C@@H](CC(C)C)C(=O)N[C@@H](CCCNC(=N)N)C(=O)N[C@@H](CC(=O)O)C(=O)N[C@@H](CO)C(N)=O)NC1=O [SP3E] (5FAM-FK[S5]SAL[S5]KQELYLKFDPLLRDS-NH2; staple 3-7) |  |
| 146 ± 3 |  | CC(C)C[C@H](NC(=O)[C@H](C)NC(=O)[C@H](CO)NC(=O)[C@H](CCC(=O)O)NC(=O)[C@H](CCCCN)NC(=O)[C@H](Cc1ccccc1)NC(=O)c1ccc2c(c1)C(=O)OC21c2ccc(O)cc2Oc2cc(O)ccc21)C(=O)N[C@@H](CCCNC(=N)N)C(=O)N[C@@H](CCCCN)C(=O)N[C@@H](CCC(N)=O)C(=O)N[C@@H](CCC(=O)O)C(=O)N[C@@H](CC(C)C)C(=O)N[C@@H](Cc1ccc(O)cc1)C(=O)N[C@@]1(C)CCCC=CCCC[C@@](C)(C(=O)N[C@@H](CC(C)C)C(=O)N[C@@H](CC(C)C)C(=O)N[C@@H](CCCNC(=N)N)C(=O)N[C@@H](CC(=O)O)C(=O)N[C@@H](CO)C(N)=O)NC(=O)[C@H](CC(=O)O)NC(=O)[C@H](Cc2ccccc2)NC(=O)[C@H](CCCCN)NC1=O [SP5E] (5FAM-FKESALRKQELY[S5]KFD[S5]LLRDS-NH2; staple 13-17) |  |

Source: PMC12204359, “Mechanistic Design of Cell-Penetrating Disruptors for a Phospho-Dependent Interaction” (Research Square, 2025)
